US11167046B2, “IR dyes for fluorescence imaging” (LI-COR, INC., priority 2014, dated 2021)
Where two headings read alike, the source gives them in different places.

Assays:
[1] = Fluorescent signal analysis of mouse urine; settings: urine extracted with acetonitrile:methanol; Odyssey CLx, 800 nm
[2] = tested on: A431 cells; assay: In vitro cell-based assay of non-specific binding, A431 cells; settings: dyes compared to 800CW
Source text: (§1) FIGS. 2A, and 2B illustrate in vitro cell-based analyses for A549 cells (A) and A431 cells (B).
(§2) In vitro cell-based assays with two carcinoma cell lines (A431 and A549) were done to assess non-specific binding of the compound of Formula 1 and the compound of Formula 2. The dyes were compared to 800CW.
(§3) The fluorescence in each well was quantified with the instrument software.

[3] = tested on: A549 cells; assay: In vitro cell-based assay of non-specific binding, A549 cells; settings: dyes compared to 800CW
Source text: as §1, §2, §3

[4] = Clearance profiles by whole-animal fluorescence imaging (dorsal and ventral) in nude mice; type: in vivo
Procedure: (§4) Animals injected with the probes were imaged over time using the 800 fluorescence channel of the Pearl Impulse Imaging System (LI-COR Biosciences). Clearance profiles for 800CW, the compound of Formula 1, and the compound of Formula 2 were carried out in nude mice (dose of 1 nmole for all compounds). Serial images and excised organs were evaluated over a 24 hr period. A Pearl Impulse small animal imaging system was used for all animal and organ image acquisitions.
Non-invasive imaging will not capture signals for the full depth of the animal but the intensity values are useful to show a relative trend.
Another way of examining fluorescence signals is by measuring the % of the compound remaining at a particular time point. The 30 min time point is the baseline to which other time points are normalized.
The percent signal remaining at each time is shown with the 30 min time point post-injection, which is used as the baseline.

[5] = Excised organs imaged at 24 hrs; type: in vivo, nude mice; settings: for detected in the brain: excised organs at 24 hrs
Procedure: as §4
Organs were excised at 24 hrs and imaged.

[6] = Excised organ evaluation at 24 hrs and 72 hrs; type: in vivo, mouse
Source text: FIGS. 11A-11H show images of various mouse organs after administration. Fluorescence images of various mouse organs at 24 and 72 hrs post-administration for the comparative control (FIG. 11A), compound of Formula 1 (FIGS. 11C and 11E) and compound of Formula 2 (FIGS. 11B and 11D). Organs examined included: heart (Ht), lungs (Ln), kidney (Kd), liver (Lv), spleen (Spl), intestine (Int), brain (Br), and muscle (Ms). […] FIGS. 11F-11H show intraoperative fluorescence (800 nm, compound of Formula 2) (FIG. 11G), white light (FIG. 11F), and composite images of the liver, gall bladder, and bile duct for compound of Formula 2 (0.1 nmole) (FIG. 11H).
Fluorescent signal intensities of various organs were examined at 24 hrs and 72 hrs for the compound of Formula 1 and the compound of Formula 2 (FIG. 11A-11E). Organs examined included: heart (Ht), lungs (Ln), kidney (Kd), liver (Lv), spleen (Spl), intestine (Int), brain (Br), and muscle (Ms).

[7] = Elimination routes in mice: serial whole animal imaging and organ imaging; type: in vivo, nude mice; settings: for plasma protein binding: inferred from liver retention / clearance; for excretion / elimination route: 1 nmole by tail vein injection; for signal in kidneys and liver, organ 1/10th LUT scale: organs harvested after 24 hours, 1 nmole tail vein
Procedure: This example describes an experiment to evaluate the excretion of the dyes described herein from animals injected with such. The dyes tested were stable cyanine dyes (IRdyes): 800CW, 800BK-sulfonate (compound of Formula 1; 800BK or BK) and 800BK-NOS (compound of Formula 2; 800NOS or NOS). In this study 12 nude mice (3 per treatment group) were injected with either (1) no probe (control group); (2) 800CW; (3) 800NOS; or (4) 800BK. The three probes (800CW-1166 g/mole (should have been 1091.1 g/mole), 800NOS-1011.09 g/mole, and 800BK-1113.14 g/mole) were dissolved in PBS. A spot test of the three probes was performed to detect the fluorescent signal when diluted to the injection dose of 1 nmole/100 μl (FIG. 12).
The mice received 1 nmole of dye by tail vein injection. The mice were imaged serially over 24 hours after IV injection: 5 minutes, 1 hour, 2 hours, 4 hours, 6 hours and 24 hours after injection. A representative series of images are presented in FIGS. 13A-13C of one animal per dye. All the data was normalized to the same LUT. A control mouse (no probe) was used as a reference (no signal control). Imaging was performed using the Pearl® Trilogy Imaging System (LI-COR®).
The mice were then sacrificed and their organs and tissue (i.e., liver, kidney, lungs, spleen and muscle) were harvested. The organs were imaged to detect fluorescence. When the same LUT was used for the animal and organ images, fluorescence in the organs was not detectable. As such, the low end of the animal scale was expanded such that the images of the organs could be evaluated (FIG. 14). For example, the “Organs 1/10th scale” was used for the images of FIGS. 15A-15D and the “Organs 1/100th scales was used for the images of FIGS. 16A-16D.

[8] = Solubility in water or aqueous media; type: physicochemical; settings: for concentration when re-suspended in water: in some embodiments; for solubility in water: stated as 'can be'
[9] = Excitation and emission of the NIR imaging probe; type: physicochemical
Source text: The NIR imaging probe used was the compound of Formula 1; excitation 773 nm and emission 790 nm or independently, Formula 2, excitation 772 nm and emission 787 nm.

[10] = mouse, in vivo
[11] = Biliary tract imaging, comparison with ICG and dose response; type: in vivo, mouse; settings: for time post-intravenous administration by which gall bladder is visible: continues visible at 2 hrs and 5 hrs
Procedure: A Pearl Impulse small animal imaging system was used for all animal and organ image acquisitions.
A comparison of the dose responses for the compound of Formula 2 are shown in FIG. 10B (1 nmole), FIG. 10C (0.5 nmole), and FIGS. 10D and 10E (0.1 nmole) at time periods of 1 min, 30 min, 2 hrs, 5 hrs, and 24 hrs. All images are presented using the same LUT table except FIG. 10E where the LUT for FIG. 10D has been reduced to brighten the 800 nm signal so they are visible.

[12] = 30 min post-injection (baseline), 1 nmole, whole body, ventral view
[13] = 120 min post-injection, normalized to 30 min, 1 nmole
[14] = 300 min post-injection, normalized to 30 min, 1 nmole
[15] = 1440 min post-injection, normalized to 30 min, 1 nmole

clearance pattern (route), ventral images ([4]; 1 nmole)	percent signal remaining [4, 12] [%]	percent signal remaining [4, 13] [%]	percent signal remaining [4, 14] [%]	percent signal remaining [4, 15] [%]	detected in the brain [5]	fluorescent signal in excised organs ([6]; 24 hrs post administration)	fluorescent signal in excised organs ([6]; 72 hrs post administration)	signal in kidneys and liver, organ 1/10th LUT scale [7]	concentration when re-suspended in water [8]	solubility in water [8]	emission [9] [nm]	excitation [9] [nm]	SMILES	non-specific binding [2]	non-specific binding [3]	plasma protein binding [7]	retention time in the liver ([7]; nude mice, 1 nmole IV)	excretion / elimination route ([7]; nude mice)	further results
													CC1(C)C(/C=C/C=C/C=C/C=C2/N(CCCCS(=O)(=O)[O-])c3ccc4ccccc4c3C2(C)C)=[N+](CCCCS(=O)(=O)[O-])c2ccc3ccccc3c21.[Na+] [ICG, indocyanine green]						fluorescent signal in urine [1]: No fluorescent signal
clear rapidly via the kidney	100	81	19	1.4	None	some signal in the liver and kidney	diminished substantially	detectable signal	at least 200 mg/mL	highly soluble in water	790	773	CC1(C)C(/C=C/C2=C(Oc3ccc(S(=O)(=O)O)cc3)C(=C/C=C3/N(CCCCS(=O)(=O)O)c4ccc(S(=O)(=O)[O-])cc4C3(C)C)/CCC2)=[N+](CCCCS(=O)(=O)O)c2ccc(S(=O)(=O)O)cc21 [Compound of Formula 1, 2-((E)-2-((E)-3-(2-((E)-3,3-dimethyl-5-sulfonato-1-(4-sulfonatobutyl)indolin-2-ylidene)ethylidene)-2-(4-sulfonatophenoxy)cyclohex-1-en-1-yl)vinyl)-3,3-dimethyl-1-(4-sulfonatobutyl)-3H-indol-1-ium-5-sulfonate]	more comparable to 800CW	more comparable to 800CW	increased (higher) plasma protein binding of 800BK than 800CW	longer retention time in the liver compared to 800CW and 800NOS	excreted renally	bladder signal, ventral images ([4]; 1 nmole): strongest signal; movement through tissues and retention in organs ([4]; in vivo data): moves rapidly through the tissues but is retained for an extended period in organs; clearance (whole body fluorescence) compared to compound of Formula 2 ([4]; ventral view, 1 nmole): slower clearance; retention in liver and kidney, excised organs ([5]; 24 hrs post injection): retained at higher levels in the liver and kidney compared to the compound of Formula 2; signal in the liver ([7]; excised organs, 24 hours): higher signal compared to 800CW; primary elimination route [10]: renal
clears through the liver	100	70	14	1.4	None	some signal in the liver and kidney	diminished substantially	detectable signal	at least 200 mg/mL	highly soluble in water	787	772	CC1(C)C(/C=C/C2=C(Oc3ccccc3)C(=C/C=C3/N(CCCCS(=O)(=O)O)c4ccc(S(=O)(=O)[O-])cc4C3(C)C)/CCC2)=[N+](CCCCS(=O)(=O)O)c2ccc(S(=O)(=O)O)cc21 [Compound of Formula 2, 2-((E)-2-((E)-3-(2-((E)-3,3-dimethyl-5-sulfonato-1-(4-sulfonatobutyl)indolin-2-ylidene)ethylidene)-2-phenoxycyclohex-1-en-1-yl)vinyl)-3,3-dimethyl-1-(4-sulfonatobutyl)-3H-indol-1-ium-5-sulfonate]	significant increase in non-specific binding compared to either the compound of Formula 1 and 800CW by two-fold	significant increase in non-specific binding compared to either the compound of Formula 1 and 800CW by two-fold	low plasma protein binding activity	very short retention time in the liver	eliminated from the body via the biliary tract (liver, gall bladder and bile ducts) and intestines	percent signal remaining ([4]; 120 min post-injection, normalized to 30 min, 1 nmole, listed as compound of Formula 2): greatest reduction; fluorescence signal, dorsal view ([4]; 2 hrs post injection, 1 nmole): high signal, emanating in the liver region; whole body signal ([4]; 5 hr post injection, 1 nmole): low compared to 800CW and the compound of Formula 1; whole body fluorescence signal ([4]; ventral view, 1 nmole): lower overall than the signal for 800CW and the compound of Formula 1; liver signals, excised organs ([5]; 24 hrs post injection): lower liver signals at 24 hrs when compared to 800CW and the compound of Formula 1; detection signal in images ([11]; 0.1 nmole dose, same scale as 1 nmole and 0.5 nmole series): very low detection signal; gall bladder target region visibility ([11]; 0.1 nmole dose, scale adjusted (FIG. 10E)): visible on a very low background; time post-intravenous administration by which gall bladder is visible ([11]; 0.5 nmole dose): ≤ 30 min; time post-intravenous administration by which gall bladder is visible ([11]; 1 nmole dose): ≤ 30 min; intestinal signal ([7]; 24 hours post injection): barely detectable; clearance from the whole body to the biliary system ([7]; nude mice, 1 nmole IV): rapid; excretion into the intestines ([7]; nude mice, 1 nmole IV): rapid excretion into the intestines; time at which the liver was visible ([7]; nude mice, 1 nmole IV): 15 min; time during which predominant signal was in the intestines ([7]; nude mice, 1 nmole IV): 2 to 6 h; fluorescent signal in urine [10]: slight fluorescence
